Earlier results in paper PMC12483202, “Pharmacokinetic profile of oral firocoxib in the koala (Phascolarctos cinereus)” (PLOS One, 2025).
Like-named read-outs stand apart in the source and are kept apart here.

What was measured:
[1] = cited from earlier work
[2] = set-up: method as in ref [4] of S9 Table; conditions: Rabbits (6); PO 3.74 -4.20 mg/kg; ref [4] of S9 Table; cited from earlier work
[3] = set-up: method as in ref [6] of S9 Table; conditions: Pigs (7); PO 4.0 mg/kg; ref [6] of S9 Table; cited from earlier work
[4] = set-up: method as in ref [8] of S9 Table; conditions: Goats (10), ref [8] of S9 Table, cited from earlier work
[5] = set-up: method as in ref [9] of S9 Table; conditions: Rhinoceros (5); PO 0.1 mg/kg; ref [9] of S9 Table; cited from earlier work
[6] = tested on: elephant plasma proteins; set-up: method as in PMID 37428699, PMID 38453490; conditions: African and Asian elephants; rapid equilibrium dialysis; cited from earlier work
[7] = tested on: COX-1:COX-2; conditions: cited from earlier work
[8] = tested on: cats; set-up: method as in PMID 16111170; conditions: cited from earlier work
[9] = tested on: equine ischaemic intestinal injury; set-up: method as in PMID 19645580; conditions: cited from earlier work
[10] = tested on: cyclooxygenase-2; conditions: based on in vitro studies in other species; cited from earlier work
[11] = Horses (6), PO 0.1 mg/kg, ref [1] of S9 Table
[12] = Horses (12), IV 0.1 mg/kg, ref [3] of S9 Table
[13] = Horses (12), PO 0.1 mg/kg, ref [3] of S9 Table

For `CC1(C)OC(=O)C(OCC2CC2)=C1c1ccc(S(C)(=O)=O)cc1` [firocoxib], the Cmax [1, 11] is given as 58.0 ng/mL, the Tmax [1, 11] is given as 3.2 h and the t1/2 [1, 11] is given as 32.77 h. For the same compound, the Cmax [1, 12] was 210 ng/mL, the t1/2 [1, 12] was 34 h and the Cmax [1, 13] was 75 ng/mL. For the same compound, the Tmax [1, 13] was 3.9 h, the t1/2 [1, 13] was 30 h and the Absolute oral bioavailability ([1]; horses dosed at 0.1 mg/kg) was 79%. For the same compound, the Cl ([1]; horses) was 0.617 mL/min/kg, the “Tmax (mean)” value ([1]; horses) was 3.2 h and the Vd ([1]; horses) was 1.7 L/kg. For the same compound, the plasma elimination half-life ([1]; horses) was 32.8 h, the Cmax ([1]; horses, oral 0.1 mg/kg) was 58 ng/mL and the Cmax [2] was 160 ng/mL. For the same compound, the Tmax [2] was 3.81 h, the t1/2 [2] was 9.12 h and the Cmax [3] was 60 ng/mL. The Tmax [3] was 7.41 h, the t1/2 [3] was 24.075 h and the t1/2 ([4]; IV 0.5 mg/kg) was 26.41 h. For the same compound, the Cmax ([4]; PO 0.5 mg/kg) was 139 ng/mL, the Tmax ([4]; PO 0.5 mg/kg) was 0.77 h and the t1/2 ([4]; PO 0.5 mg/kg) was 21.51 h. For the same compound, the Cmax [5] was 15.7 ng/mL, the t1/2 [5] was 4.96 h and the “binding to elephant plasma proteins” value [6] was 45%. For the same compound, the “COX-1:COX-2 inhibition ratio” value ([7]; dogs, whole blood) was 384–427, the “COX-2 selectivity relative to carprofen” value ([7]; more potent than carprofen in COX-2 selectivity) was 30 fold and the antipyretic activity [8] was “antipyretic activity”. The visceral analgesia ([9]; equine ischaemic intestinal injury) was “efficacious visceral analgesia”, the “mucosal barrier function recovery” value ([9]; firocoxib compared with flunixin meglumine) was “superior mucosal barrier function recovery” and the “target plasma concentration to inhibit 80% of cyclooxygenase-2 activity (IC80)” value [10] was “approximately 100 ng/mL”.
